This is an account of results in ChEMBL document CHEMBL1137470, “Pyrrolidinones as potent functional antagonists of the human melanocortin-4 receptor” (Bioorg Med Chem Lett, 2007).

Data set [1] is described as follows: Ratio of drug level in brain to plasma in mouse at 5 mg/kg, iv after 4 hrs. The data set is classed as ADME, organism-based. Set-up: dose 5 mg/kg, route intravenous. The settings on record: read-out: BPR.
Data set [2] is described as follows: Permeability from basolateral to apical side of the Caco-2 cell membrane. It counts as ADME, cell-based. The conditions noted are these: human, read-out: permeability.
Data set [3] can be described thus: Drug level in rat brain at 5 mg/kg, iv after 1 hr. Set-up: dose 5 mg/kg, route intravenous. It counts as ADME, organism-based. The settings on record: read-out: Drug uptake.
Data set [4] can be described thus: Plasma clearance in mouse at 5 mg/kg, iv. It counts as ADME, organism-based. Further details: dose 5 mg/kg, route intravenous.
Data set [5] can be described thus: Volume of distribution in mouse at 5 mg/kg, iv. It counts as ADME, organism-based. Set-up: dose 5 mg/kg, route intravenous. The settings on record: in vivo.
Data set [6] can be described thus: Half life in mouse at 5 mg/kg, iv. It counts as ADME, organism-based. Further details: dose 5 mg/kg, route intravenous. The settings on record: in vivo.
Data set [7] is described as follows: AUC in mouse at 5 mg/kg, iv. The data set is classed as ADME, organism-based. Set-up: dose 5 mg/kg, route intravenous. The settings on record: plasma.
The nature of data set [8]: Drug level in mouse brain at 5 mg/kg, iv after 1 hr. It counts as ADME, organism-based. Set-up: dose 5 mg/kg, route intravenous. The settings on record: read-out: Drug uptake.
A short description of data set [9]: Drug level in mouse brain at 5 mg/kg, iv after 4 hrs. It counts as ADME, organism-based. Set-up: dose 5 mg/kg, route intravenous. The settings on record: read-out: Drug uptake.
Data set [10] is described as follows: Ratio of drug level in brain to plasma in rat at 5 mg/kg, iv after 1 hr. It counts as ADME, organism-based. Set-up: dose 5 mg/kg, route intravenous. The settings on record: read-out: BPR.
A short description of data set [11]: Cmax in mouse at 10 mg/kg, po after 2 hrs. It counts as ADME, organism-based. Further details: dose 10 mg/kg, route oral. The conditions noted are these: in vivo.
Data set [12] in a line: Tmax in mouse at 10 mg/kg, po. Set-up: dose 10 mg/kg, route oral. It counts as ADME, organism-based. The conditions noted are these: in vivo.
Data set [13] can be described thus: AUC in mouse at 10 mg/kg, po. The data set is classed as ADME, organism-based. Set-up: dose 10 mg/kg, route oral. The settings on record: plasma.
Data set [14] is described as follows: Oral bioavailability in mouse at 10 mg/kg, po. It counts as ADME, organism-based. The settings on record: in vivo.
Data set [15] can be described thus: Lipophilicity, log D by shake-flask method. It counts as physicochemical. The conditions noted are these: octanol/water.
Data set [16] in a line: Ratio of drug level in brain to plasma in mouse at 5 mg/kg, iv after 1 hr. It counts as ADME, organism-based. Further details: dose 5 mg/kg, route intravenous. The conditions noted are these: read-out: BPR.
The nature of data set [17]: Apparent permeability across Caco-2 cells. The conditions noted are these: human. It counts as ADME, cell-based.

Each structure is given as a SMILES string.

`CC(C)C[C@H](NCCN)c1cc(F)ccc1N1CCN(C(=O)[C@@H](Cc2ccc(Cl)cc2Cl)N2CCCC2=O)CC1`: in data set [1], the Kp at 4 h is 0.23.

As for `CC(C)C[C@H](NCCN)c1cccc(F)c1N1CCN(C(=O)[C@@H](Cc2ccc(Cl)cc2Cl)N2CCCC2=O)CC1`, the Papp B→A in data set [2] turned out to be 6.7 ×10⁻⁶ cm/s. For the same molecule, the results for the concentration at 1 h in [3] and in data set [8] were 81 ng/g and 63 ng/g, respectively. Also, in data set [4], the clearance was 15 mL/min/kg. Moreover, the distribution volume (Vd) in [5] was 13 L/kg. In data set [6], this molecule had a half-life of 10 h. Further, the values for the AUC in data set [7] and in data set [13] were 9980 ng·h/mL and 1950 ng·h/mL, respectively. In addition, the concentration at 4 h in data set [9] stood at 53 ng/g. For the same molecule, the Kp at 1 h in data set [10] worked out at 0.47; in [16], 0.14. Moreover, in data set [11], the concentration peaked (Cmax) at 552 ng/mL. Further, the Tmax in data set [12] turned out to be 2 h. Besides, the bioavailability in [14] was found to be 19.5%. In data set [15], this molecule displayed a logD of 1.8. Further, in [17], the Papp is 2 ×10⁻⁶ cm/s.
